# Reference: ChEMBL document CHEMBL3817770, “Design and synthesis of 5-aminolaevulinic acid/3-hydroxypyridinone conjugates for photodynamic therapy: enhancement of protoporphyrin IX production and photo-toxicity in tumor cells” (Medchemcomm, 2016)
# Active and inactive are the calls of the source. No cut-off for these calls is given here.
# Legend:
# MDA-MB-435 [1] = test: Phototoxicity in human MDA-MB-435 cells assessed as cell survival at 250 uM incubated for 4 hrs followed by irradiation with blue light for 5 mins by MTT assay; type: functional; settings: MDA-MB-435, light or radiation study, read-out: Survival
# LNCaP [2] = test: Phototoxicity in human LNCAP cells assessed as cell survival at 200 uM incubated for 4 hrs followed by irradiation with blue light for 5 mins by MTT assay; type: functional; settings: for viability at 200 µM: light or radiation study, read-out: Survival
# MDA-MB-435 [3] = test: Increase in protoporphyrin 9 levels in human MDA-MB-435 cells at 50 to 250 uM after 5 hrs in presence of CP94 by fluorescence spectrometer plate reader method; type: functional, cell-based
# [4] = Phototoxicity in human BPH1 cells assessed as cell survival at 100 uM incubated for 4 hrs followed by irradiation with blue light for 5 mins in presence of CP94 by MTT assay; type: cell-based, BPH-1; settings: read-out: Survival
# A549 [5] = test: Increase in protoporphyrin 9 levels in human A549 cells at 200 uM after 24 hrs in presence of CP94 by fluorescence spectrometer plate reader method; type: functional
# KB [6] = test: Phototoxicity in human KB cells assessed as cell survival at 200 uM incubated for 4 hrs followed by irradiation with blue light for 5 mins by MTT assay; type: functional; settings: for viability at 200 µM: light or radiation study, read-out: Survival
# LNCaP [7] = test: Increase in protoporphyrin 9 levels in human LNCAP cells at 200 uM after 3 hrs in presence of CP94 by fluorescence spectrometer plate reader method; type: functional
# [8] = Dark toxicity in human BPH1 cells at 200 uM after 4 hrs by MTT assay; type: cell-based; settings: bph-1, 4 h
# A549 [9] = test: Dark toxicity in human A549 cells at 200 uM after 4 hrs by MTT assay; type: cell-based; settings: a549, 4 h
# LNCaP [10] = test: Increase in protoporphyrin 9 levels in human LNCAP cells at 200 uM after 24 hrs in presence of CP94 by fluorescence spectrometer plate reader method; type: functional
# HeLa [11] = test: Increase in protoporphyrin 9 levels in human HeLa cells at 50 to 250 uM after 5 hrs in presence of CP94 by fluorescence spectrometer plate reader method; type: functional, cell-based
# [12] = Phototoxicity in human BPH1 cells assessed as cell survival at 200 uM incubated for 4 hrs followed by irradiation with blue light for 5 mins by MTT assay; type: cell-based, BPH-1; settings: for viability at 4 h, 200 µM: BPH1 cells, read-out: Survival
# A549 [13] = test: Increase in protoporphyrin 9 levels in human A549 cells at 200 uM after 6 hrs in presence of CP94 by fluorescence spectrometer plate reader method; type: functional
# MCF7 [14] = test: Dark toxicity in human MCF7 cells at 200 uM after 4 hrs by MTT assay; type: cell-based; settings: mcf7, 4 h
# MDA-MB-435 [15] = test: Phototoxicity in human MDA-MB-435 cells assessed as cell survival at 250 uM incubated for 4 hrs followed by irradiation with blue light for 5 mins in presence of CP94 by MTT assay; type: functional; settings: MDA-MB-435, light or radiation study, read-out: Survival
# HeLa [16] = test: Phototoxicity in human HeLa cells assessed as cell survival incubated for 4 hrs followed by irradiation with blue light for 5 mins in presence of CP94 by MTT assay; type: functional, cell-based
# LNCaP [17] = test: Dark toxicity in human LNCAP cells at 200 uM after 4 hrs by MTT assay; type: cell-based
# A549 [18] = test: Increase in protoporphyrin 9 levels in human A549 cells at 200 uM after 3 hrs in presence of CP94 by fluorescence spectrometer plate reader method; type: functional
# A549 [19] = test: Phototoxicity in human A549 cells assessed as cell survival at 200 uM incubated for 4 hrs followed by irradiation with blue light for 5 mins by MTT assay; type: functional; settings: for viability at 200 µM: A549, light or radiation study, read-out: Survival
# MCF7 [20] = test: Phototoxicity in human MCF7 cells assessed as cell survival at 100 uM incubated for 4 hrs followed by irradiation with blue light for 5 mins in presence of CP94 by MTT assay; type: functional; settings: MCF7, light or radiation study, read-out: Survival
# HeLa [21] = test: Phototoxicity in human HeLa cells assessed as cell survival at 250 uM incubated for 4 hrs followed by irradiation with blue light for 5 mins in presence of CP94 by MTT assay; type: functional; settings: light or radiation study, read-out: Survival
# A549 [22] = test: Phototoxicity in human A549 cells assessed as cell survival at 100 uM incubated for 4 hrs followed by irradiation with blue light for 5 mins in presence of CP94 by MTT assay; type: functional; settings: A549, light or radiation study, read-out: Survival
# LNCaP [23] = test: Increase in protoporphyrin 9 levels in human LNCAP cells at 200 uM after 6 hrs in presence of CP94 by fluorescence spectrometer plate reader method; type: functional
# MDA-MB-435 [24] = test: Phototoxicity in human MDA-MB-435 cells assessed as cell survival incubated for 4 hrs followed by irradiation with blue light for 5 mins in presence of CP94 by MTT assay; type: functional, cell-based
# HeLa [25] = test: Phototoxicity in human HeLa cells assessed as cell survival at 250 uM incubated for 4 hrs followed by irradiation with blue light for 5 mins by MTT assay; type: functional; settings: light or radiation study, read-out: Survival
# LNCaP [26] = test: Phototoxicity in human LNCAP cells assessed as cell survival at 100 uM incubated for 4 hrs followed by irradiation with blue light for 5 mins in presence of CP94 by MTT assay; type: functional; settings: light or radiation study, read-out: Survival
# KB [27] = test: Increase in protoporphyrin 9 levels in human KB cells at 200 uM after 3 to 24 hrs by fluorescence spectrometer plate reader method; type: functional, cell-based
# A549 [28] = test: Phototoxicity in human A549 cells assessed as cell survival at 100 uM incubated for 4 hrs followed by irradiation with blue light for 5 mins by MTT assay; type: functional
# A549 [29] = test: Increase in protoporphyrin 9 levels in human A549 cells at 200 uM after 3 to 24 hrs by fluorescence spectrometer plate reader method; type: functional, cell-based
# KB [30] = test: Increase in protoporphyrin 9 levels in human KB cells at 100 uM after 24 hrs by fluorescence spectrometer plate reader method relative to ALA; type: functional
# LNCaP [31] = test: Increase in protoporphyrin 9 levels in human LNCAP cells at 200 uM after 3 to 24 hrs by fluorescence spectrometer plate reader method; type: functional, cell-based
# [32] = Increase in protoporphyrin 9 levels in human BPH1 cells at 100 uM after 24 hrs by fluorescence spectrometer plate reader method relative to ALA; type: ADME, cell-based; settings: bph-1, 24 h
# LNCaP [33] = test: Phototoxicity in human LNCAP cells assessed as cell survival at 100 uM incubated for 4 hrs followed by irradiation with blue light for 5 mins by MTT assay; type: functional
# LNCaP [34] = test: Increase in protoporphyrin 9 levels in human LNCAP cells at 100 uM after 24 hrs by fluorescence spectrometer plate reader method relative to ALA; type: functional
# MCF7 [35] = test: Phototoxicity in human MCF7 cells assessed as cell survival at 100 uM incubated for 4 hrs followed by irradiation with blue light for 5 mins by MTT assay; type: functional
# [36] = Increase in protoporphyrin 9 levels in human BPH1 cells at 200 uM after 3 to 24 hrs by fluorescence spectrometer plate reader method; type: ADME, cell-based; settings: bph-1, 200 µM
# A549 [37] = test: Increase in protoporphyrin 9 levels in human A549 cells at 100 uM after 24 hrs by fluorescence spectrometer plate reader method relative to ALA; type: functional
# A549 [38] = test: Increase in protoporphyrin 9 levels in human A549 cells at 200 uM after 3 hrs by fluorescence spectrometer plate reader method; type: functional
# HeLa [39] = test: Increase in protoporphyrin 9 levels in human HeLa cells after 5 hrs by fluorescence spectrometer plate reader method; type: functional, cell-based
# A549 [40] = test: Increase in protoporphyrin 9 levels in human A549 cells at 200 uM after 24 hrs by fluorescence spectrometer plate reader method relative to ALA and CP94; type: functional
# LNCaP [41] = test: Increase in protoporphyrin 9 levels in human LNCAP cells at 200 uM after 6 hrs by fluorescence spectrometer plate reader method; type: functional
# A549 [42] = test: Increase in protoporphyrin 9 levels in human A549 cells at 200 uM after 6 hrs by fluorescence spectrometer plate reader method relative to ALA and CP94; type: functional
# LNCaP [43] = test: Increase in protoporphyrin 9 levels in human LNCAP cells at 200 uM after 24 hrs by fluorescence spectrometer plate reader method; type: functional
# HeLa [44] = test: Phototoxicity in human HeLa cells assessed as cell survival incubated for 4 hrs followed by irradiation with blue light for 5 mins by MTT assay; type: functional, cell-based
# MDA-MB-435 [45] = test: Increase in protoporphyrin 9 levels in human MDA-MB-435 cells after 5 hrs by fluorescence spectrometer plate reader method; type: functional, cell-based
# A549 [46] = test: Increase in protoporphyrin 9 levels in human A549 cells at 200 uM after 24 hrs by fluorescence spectrometer plate reader method; type: functional
# A549 [47] = test: Increase in protoporphyrin 9 levels in human A549 cells at 200 uM after 6 hrs by fluorescence spectrometer plate reader method; type: functional
# MDA-MB-435 [48] = test: Phototoxicity in human MDA-MB-435 cells assessed as cell survival incubated for 4 hrs followed by irradiation with blue light for 5 mins by MTT assay; type: functional, cell-based
# A549 [49] = test: Increase in protoporphyrin 9 levels in human A549 cells at 200 uM after 3 hrs by fluorescence spectrometer plate reader method relative to ALA and CP94; type: functional
# LNCaP [50] = test: Increase in protoporphyrin 9 levels in human LNCAP cells at 200 uM after 3 hrs by fluorescence spectrometer plate reader method; type: functional
# [51] = Phototoxicity in human BPH1 cells assessed as cell survival at 100 uM incubated for 4 hrs followed by irradiation with blue light for 5 mins by MTT assay; type: cell-based, BPH-1; settings: read-out: Survival
structure (smiles),measurement,setting,value
NCC(=O)CCC(=O)O [AMINOLEVULINIC ACID],viability at 250 µM,MDA-MB-435 [1],61.4%
same,viability at 200 µM,LNCaP [2],61.9%
same,Activity,MDA-MB-435 [3],Active
same,"viability at 4 h, 100 µM",[4],81.9%
same,Flu intensity,A549 [5],77.8 a.u.
same,viability at 200 µM,KB [6],52.6%
same,Flu intensity,LNCaP [7],17.3 a.u.
same,Activity,[8],Non-toxic
same,Activity,A549 [9],Non-toxic
same,Flu intensity,LNCaP [10],46 a.u.
same,Activity,HeLa [11],Active
same,"viability at 4 h, 200 µM",[12],70.8%
same,Flu intensity,A549 [13],42.1 a.u.
same,Activity,MCF7 [14],Non-toxic
same,viability at 250 µM,MDA-MB-435 [15],28.9%
same,Activity,HeLa [16],Dose-dependent effect
same,Activity,LNCaP [17],Non-toxic
same,Flu intensity,A549 [18],17.7 a.u.
same,viability at 200 µM,A549 [19],54.7%
same,viability at 100 µM,MCF7 [20],26.7%
same,viability at 250 µM,HeLa [21],26.9%
same,viability at 100 µM,A549 [22],18.4%
same,Flu intensity,LNCaP [23],31.3 a.u.
same,Activity,MDA-MB-435 [24],Dose-dependent effect
same,viability at 250 µM,HeLa [25],58.6%
same,viability at 100 µM,LNCaP [26],33.1%
CCCCCCn1ccc(=O)c(O)c1C(=O)N[C@@H](CC(C)C)C(=O)NCC(=O)CCC(=O)OC,Activity,KB [27],inactive
same,Activity,A549 [28],inactive
same,Activity,LNCaP [2],inactive
same,Activity,KB [6],inactive
same,Activity,A549 [29],inactive
same,Activity,KB [30],inactive
same,Activity,[8],Non-toxic
same,Activity,LNCaP [31],inactive
same,Activity,A549 [9],Non-toxic
same,Activity,[32],Non-toxic
same,Activity,"[12]; bph-1, 4 h, 200 µM",Non-toxic
same,Activity,LNCaP [33],inactive
same,Activity,MCF7 [14],Non-toxic
same,Activity,LNCaP [17],Non-toxic
same,Activity,LNCaP [34],inactive
same,Activity,A549 [19],inactive
same,Activity,MCF7 [35],inactive
same,Activity,[36],Non-toxic
same,Activity,A549 [37],inactive
COC(=O)CCC(=O)CNC(=O)[C@H](Cc1ccccc1)NC(=O)c1c(O)c(=O)ccn1C,Flu intensity,A549 [38],27.7 a.u.
same,viability at 250 µM,MDA-MB-435 [1],11.1%
same,Activity,KB [27],Active
same,Activity,HeLa [39],Dose-dependent effect
same,viability at 100 µM,"A549 [28]; A549, light or radiation study, read-out: Survival",14.7%
same,viability at 200 µM,LNCaP [2],13.5%
same,Flu intensity,A549 [40],1.2 a.u.
same,Flu intensity,LNCaP [41],47.1 a.u.
same,viability at 200 µM,KB [6],7.8%
same,Flu intensity,A549 [42],1.3 a.u.
same,Flu intensity,LNCaP [43],58.4 a.u.
same,fold change (FC),KB [30],2.9
same,Activity,HeLa [44],Dose-dependent effect
same,Activity,MDA-MB-435 [45],Dose-dependent effect
same,Activity,[8],Non-toxic
same,Activity,A549 [9],Non-toxic
same,fold change (FC),[32],1.5
same,Flu intensity,A549 [46],94.6 a.u.
same,Flu intensity,A549 [47],52.9 a.u.
same,"viability at 4 h, 200 µM",[12],12.4%
same,Activity,MDA-MB-435 [48],Dose-dependent effect
same,viability at 100 µM,"LNCaP [33]; light or radiation study, read-out: Survival",26.3%
same,Activity,MCF7 [14],Non-toxic
same,Activity,LNCaP [17],Non-toxic
same,fold change (FC),LNCaP [34],4
same,Flu intensity,A549 [49],1.6 a.u.
same,viability at 200 µM,A549 [19],16.3%
same,Flu intensity,LNCaP [50],25.3 a.u.
same,viability at 100 µM,"MCF7 [35]; MCF7, light or radiation study, read-out: Survival",21.1%
same,"viability at 4 h, 100 µM",[51],75.1%
same,Activity,[36],Non-toxic
same,fold change (FC),A549 [37],3.1
same,viability at 250 µM,HeLa [25],15.3%
